In patent publication EP0677522A1, “8-METHOXYQUINOLONECARBOXYLIC ACID DERIVATIVE” (priority 1992, dated 1994):
Values after ≈ are worked out from the molar mass of the structure shown.

Legend:
[1] = test system: K.pneumoniae DT-S; experiment: In vitro antibacterial activity (MIC), Japan Society of Chemotherapy Standard; format: cell-based; details: Klebsiella pneumoniae; inoculated cells 10⁶ cells/ml
Method: (§1) The in vitro antibacterial activity (minimum inhibitory concentration, MIC, µg/ml) of the test compounds was determined according to Japan Society of Chemotherapy Standard [Chemotherapy, vol. 29, pp 76-79 (1981)].
(§2) Inoculated cells were 10⁶ cells/ml and the strain with * was incubated in a medium supplemented with 10% horse blood. The mark "1)" means quinolone resistant MRSA and "2)" means quinolone resistant bacteria.

[2] = test system: Enterobacter cloacae IFO 12937; experiment: as above; format: cell-based; details: IFO12937, inoculated cells 10⁶ cells/ml
Method: as §1, §2

[3] = test system: Serratia marcescens IFO 12648; experiment: as above; format: cell-based; details: IFO12648, inoculated cells 10⁶ cells/ml
Method: as §1, §2

[4] = test system: Pseudomonas aeruginosa IFO 12582; experiment: as above; format: cell-based; details: IFO12582, inoculated cells 10⁶ cells/ml
Method: as §1, §2

[5] = test system: A.calcoaceticus IFO 13006; experiment: as above; format: cell-based; details: Acinetobacter calcoaceticus, IFO13006; inoculated cells 10⁶ cells/ml
Method: as §1, §2

[6] = test system: Staphylococcus aureus FDA 209P; experiment: as above; format: cell-based; details: FDA209P, inoculated cells 10⁶ cells/ml
Method: as §1, §2

[7] = test system: P. mirabilis IFO 3849; experiment: as above; format: cell-based; details: Proteus mirabilis, IFO3849; inoculated cells 10⁶ cells/ml
Method: as §1, §2

[8] = test system: Shigella flexneri EW-10; experiment: as above; format: cell-based; details: EW10, inoculated cells 10⁶ cells/ml
Method: as §1, §2

[9] = test system: Citrobacter freundii IFO 12681; experiment: as above; format: cell-based; details: IFO12681, inoculated cells 10⁶ cells/ml
Method: as §1, §2

[10] = test system: Proteus vulgaris IFO 3988; experiment: as above; format: cell-based; details: IFO3988, inoculated cells 10⁶ cells/ml
Method: as §1, §2

[11] = test system: S. viridans America; experiment: as above; format: cell-based; details: Streptococcus viridans; inoculated cells 10⁶ cells/ml; medium supplemented with 10% horse blood
Method: as §1, §2

[12] = test system: E. faecalis EFY-204; experiment: as above; format: cell-based; details: Enterococcus faecalis, EFY204; quinolone resistant bacteria; inoculated cells 10⁶ cells/ml
Method: as §1, §2

[13] = test system: Klebsiella pneumoniae DT; experiment: as above; format: cell-based; details: inoculated cells 10⁶ cells/ml
Method: as §1, §2

[14] = test system: E. faecium EFMY-28; experiment: as above; format: cell-based; details: Enterococcus faecium, EFMY28; inoculated cells 10⁶ cells/ml
Method: as §1, §2

[15] = test system: L.monocytogenes VTU-206; experiment: as above; format: cell-based; details: Listeria monocytogenes, VTU206; inoculated cells 10⁶ cells/ml; medium supplemented with 10% horse blood
Method: as §1, §2

[16] = test system: E. faecium EFMY-207; experiment: as above; format: cell-based; details: Enterococcus faecium, EFMY207; quinolone resistant bacteria; inoculated cells 10⁶ cells/ml
Method: as §1, §2

[17] = test system: S. epidermidis SEY-223; experiment: as above; format: cell-based; details: Staphylococcus epidermidis, SEY223; quinolone resistant bacteria; inoculated cells 10⁶ cells/ml
Method: as §1, §2

[18] = test system: Enterococcus faecalis LS-101; experiment: as above; format: cell-based; details: LS101, inoculated cells 10⁶ cells/ml
Method: as §1, §2

[19] = test system: Chlamydia trachomatis D/UW-3Cx; experiment: Antibacterial effect against specific bacteria (MIC); format: cell-based; details: same manner as Experimental Example 1
Method: as §1
(§3) In the same manner as in Experimental Example 1, the antibacterial effect against specific bacteria such as Chlamydia, Mycoplasma and acid-fast bacteria and anaerobic bacteria was determined.

[20] = test system: Mycobacterium smegmatis IFO 3153; experiment: as above; format: cell-based; details: Mycolicibacterium smegmatis, IFO3153; same manner as Experimental Example 1
Method: as §1, §3

[21] = test system: B. fragilis BFY-18; experiment: as above; format: cell-based; details: Bacteroides fragilis, BFY18; same manner as Experimental Example 1
Method: as §1, §3

[22] = test system: Bacteroides fragilis GAI 5560; experiment: as above; format: cell-based; details: GAI5560, same manner as Experimental Example 1
Method: as §1, §3

[23] = test system: Mycoplasma pneumoniae ATCC 29343; experiment: as above; format: cell-based; details: ATCC29343, same manner as Experimental Example 1
Method: as §1, §3

[24] = test system: Ureaplasma urealyticum ATCC 27618; experiment: as above; format: cell-based; details: ATCC27618, same manner as Experimental Example 1
Method: as §1, §3

[25] = test system: Mycobacterium smegmatis IFO 13167; experiment: as above; format: cell-based; details: Mycolicibacterium smegmatis, IFO13167; same manner as Experimental Example 1
Method: as §1, §3

[26] = test system: E. coli KC-14; experiment: Protection of mice from experimental infection; format: in vivo; details: oral administration one hour after inoculation, survival ratio at 7 days
Method: (§4) Experimental infection was caused by intraperitoneal inoculation of respective bacteria to male mice. One hour after the inoculation, a test compound was orally administered to the mice. The therapeutic effect of each test compound was evaluated by reference to the 50% effective dose (ED₅₀) which was based on the survival ratio at 7 days after the administration according to the probit method [Proc. Soc. Exp. Med., Vol. 57, p 261-264 (1944)]. The minimum inhibitory concentration (MIC) of the infectious bacteria used was also determined. […]

[27] = test system: S. aureus MRSA Y-238; experiment: Protection of mice from experimental infection; format: in vivo; details: oral administration one hour after inoculation, survival ratio at 7 days
Method: as §4

[28] = test system: S. aureus Smith; experiment: Protection of mice from experimental infection; format: in vivo; details: male mice; intraperitoneal inoculation 2.8×10⁶ cells/mouse (123×LD₅₀); oral administration one hour after inoculation; survival ratio at 7 days, probit method
Method: as §4

[29] = test system: E. coli KC-14; experiment: MIC of the infectious bacteria used for experimental infection; format: cell-based; details: Escherichia coli, KC14; infectious strain of the mouse protection test
Method: as §1, §4

[30] = test system: S. aureus MRSA Y-238; experiment: as above; format: cell-based; details: Staphylococcus aureus, infectious strain of the mouse protection test
Method: as §1, §4

[31] = test system: S. aureus Smith; experiment: as above; format: cell-based; details: Staphylococcus aureus; infectious strain of the mouse protection test
Method: as §1, §4

Structure (SMILES): CC1COc2c(N3CCN(C)CC3)c(F)cc3c(=O)c(C(=O)O)cn1c23 (stereo not drawn) [Comp. Ex. 2, 9-fluoro-2,3-dihydro-3-methyl-10-(4-methyl-1-piperazinyl)-7-oxo-7H-pyrido [1. 2. 3-de) [1.4] benzoxazine-6-carboxylic acid, reference compound]
- MIC [1]: 0.05 µg/mL (≈ 0.138 µM)
- MIC [2]: 0.39 µg/mL (≈ 1.08 µM)
- MIC [3]: 0.2 µg/mL (≈ 0.553 µM)
- MIC [4]: 1.56 µg/mL (≈ 4.32 µM)
- MIC [5]: 0.2 µg/mL (≈ 0.553 µM)
- MIC [6]: 0.2 µg/mL (≈ 0.553 µM)
- MIC [7]: 0.39 µg/mL (≈ 1.08 µM)
- MIC [8]: 0.05 µg/mL (≈ 0.138 µM)
- MIC [9]: 0.1 µg/mL (≈ 0.277 µM)
- MIC [10]: 0.1 µg/mL (≈ 0.277 µM)
- MIC [11]: 3.13 µg/mL (≈ 8.66 µM)
- MIC [12]: 50 µg/mL (≈ 138 µM)
- MIC [13]: 0.1 µg/mL (≈ 0.277 µM)
- MIC [14]: 3.13 µg/mL (≈ 8.66 µM)
- MIC [15]: 3.13 µg/mL (≈ 8.66 µM)
- MIC [16]: 100 µg/mL (≈ 277 µM)
- MIC [17]: > 100 µg/mL
- MIC [18]: 0.39 µg/mL (≈ 1.08 µM)
- MIC [19]: 0.39 µg/mL (≈ 1.08 µM)
- MIC [20]: 0.39 µg/mL (≈ 1.08 µM)
- MIC [21]: 1.56 µg/mL (≈ 4.32 µM)
- MIC [22]: 1.56 µg/mL (≈ 4.32 µM)
- MIC [23]: 1.56 µg/mL (≈ 4.32 µM)
- MIC [24]: 3.13 µg/mL (≈ 8.66 µM)
- MIC [25]: 0.39 µg/mL (≈ 1.08 µM)
- ED₅₀ (mg/mouse) (95% confidence limit) ([26]; Table 3-1: male mice, intraperitoneal inoculation 5.0×10⁶ cells/mouse (744×LD₅₀)): 0.012(0.009-0.018) mg/mouse
- ED₅₀ (mg/mouse) (95% confidence limit) ([26]; Table 3-2: male mice, intraperitoneal inoculation (744×LD₅₀)): 0.012(0.009-0.018) mg/mouse
- ED₅₀ (mg/mouse) (95% confidence limit) ([27]; Table 3-1: male mice, intraperitoneal inoculation 7.5×10⁶ cells/mouse (185×LD₅₀)): > 16 mg/mouse
- ED₅₀ (mg/mouse) (95% confidence limit) ([27]; Table 3-2: male mice, intraperitoneal inoculation 7.5×10⁵ cells/mouse (185×LD₅₀)): > 16 mg/mouse
- ED₅₀ (mg/mouse) (95% confidence limit) [28]: 0.208(0.137-0.344) mg/mouse
- MIC [29]: 0.05 µg/mL
- MIC [30]: > 100 µg/mL
- MIC [31]: 0.05 µg/mL
